{
  "source": "patent US20260132103A1",
  "about": "“Bumetanide Derivatives for the Therapy of Stroke and Other Neurological Diseases/Disorders Involving NKCCs” (University of Pittsburgh - Of the Commonwealth System of …, priority 2018, published 2026)",
  "key": {"[1]": {"target": "T1, pNKCC1 and tNKCC1 proteins (Mus musculus, UniProt P55012)", "T1 construct": "cell lysates were harvested for immunoblotting of pNKCC1 and tNKCC1 proteins; endogenous in cells; host or cells: GL26 and SB28-GFP mouse glioma cells", "T1 sequence (P55012 1-1205)": "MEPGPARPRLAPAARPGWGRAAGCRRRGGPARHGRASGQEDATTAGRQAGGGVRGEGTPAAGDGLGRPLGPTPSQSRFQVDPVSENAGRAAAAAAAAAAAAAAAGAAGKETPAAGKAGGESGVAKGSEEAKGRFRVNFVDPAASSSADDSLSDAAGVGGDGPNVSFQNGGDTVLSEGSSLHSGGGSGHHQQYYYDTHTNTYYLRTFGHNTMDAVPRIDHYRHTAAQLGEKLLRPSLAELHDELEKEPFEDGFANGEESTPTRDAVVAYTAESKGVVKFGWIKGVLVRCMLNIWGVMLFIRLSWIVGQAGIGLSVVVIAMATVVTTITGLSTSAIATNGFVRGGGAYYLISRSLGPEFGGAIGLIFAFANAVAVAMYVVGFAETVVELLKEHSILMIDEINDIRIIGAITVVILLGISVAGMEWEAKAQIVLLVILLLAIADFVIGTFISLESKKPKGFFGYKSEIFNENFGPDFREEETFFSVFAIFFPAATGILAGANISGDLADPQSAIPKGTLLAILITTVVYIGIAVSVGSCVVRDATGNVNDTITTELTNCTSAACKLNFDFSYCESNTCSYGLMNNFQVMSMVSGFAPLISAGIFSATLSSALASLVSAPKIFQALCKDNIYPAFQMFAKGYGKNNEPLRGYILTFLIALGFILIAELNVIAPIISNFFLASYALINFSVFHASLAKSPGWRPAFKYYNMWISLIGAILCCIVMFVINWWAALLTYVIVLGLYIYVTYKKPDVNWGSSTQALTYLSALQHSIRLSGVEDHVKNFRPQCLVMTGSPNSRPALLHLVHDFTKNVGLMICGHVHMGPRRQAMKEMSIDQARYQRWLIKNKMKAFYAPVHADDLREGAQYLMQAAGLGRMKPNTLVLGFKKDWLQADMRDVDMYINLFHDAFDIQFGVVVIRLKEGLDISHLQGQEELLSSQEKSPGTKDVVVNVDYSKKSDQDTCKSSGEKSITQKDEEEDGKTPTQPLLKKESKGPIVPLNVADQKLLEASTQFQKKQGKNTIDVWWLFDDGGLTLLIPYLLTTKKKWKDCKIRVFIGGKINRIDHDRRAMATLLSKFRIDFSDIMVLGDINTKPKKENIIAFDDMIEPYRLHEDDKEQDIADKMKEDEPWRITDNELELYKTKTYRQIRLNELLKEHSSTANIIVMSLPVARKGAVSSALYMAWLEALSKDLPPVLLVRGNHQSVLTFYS", "assay": "Immunoblotting of pNKCC1 and tNKCC1", "format": "cell-based", "settings": "GL26 and SB28-GFP cells, 6 h; BMT 10 μM, STS66 10 μM, TMZ 100 μM or combined", "protocol": "FIGS. 6A-6B: GL26 and SB28-GFP cells were exposed to BMT (10 μM), STS66 (10 μM), TMZ (100 μM) or combined for 6 h and cell lysates were harvested for immunoblotting of pNKCC1 and tNKCC1 proteins. Data are means±SEM from six independent experiments. *P<0.05, **P<0.01, ***P<0.001.\nGL26 and SB28-GFP cells were washed with ice-cold PBS and incubated in RIPA buffer containing 1 pill of phosSTOP and 2 mM protease inhibitors as described before (Algharabli et al. 2012). Cells were lysed by sonication at 4° C. Protein content of the cellular lysate was determined with BCA Protein Assay Kit. Samples and sample buffer (Thermo Scientific, Rockford, IL, USA) were boiled at 95° C. for 5 min. The samples were then electrophoretically separated on 10% SDS gels. After transferring to PVDF membranes, the blots were blocked in 10% nonfat dry milk in TBS-T (Tris-buffered saline, 0.05% Tween-20) for 1 hour at room temperature and then incubated with appropriate primary antibodies (pNKCC1, 1:300 and tNKCC1, 1:3000) at 4° C. overnight. After rinsing with TBS-T, the blots were incubated with horseradish peroxidase-conjugated secondary IgG (1:2000) for 1 hr at RT. Bound antibody was visualized with an enhanced chemiluminescence assay. Protein band signal intensities were analyzed using ImageJ and normalized to α-tubulin expression."}, "GL26 and SB28-GFP cells": {"tested_on": "GL26 and SB28-GFP cells", "assay": "BrdU proliferation assay", "format": "cell-based, mouse", "settings": "48 h drug treatment, compared to BMT", "protocol": "FIG. 7: BrdU incorporation of GL26 cells and SB28-GFP cells following 48 h drug treatment. Data are means±SEM from three independent experiments. **P<0.01, ***p<0.001, ****p<0.0001.\nCell proliferation of GL26 and SB28-GFP cells was measured by quantifying BrdU incorporation. GL26 cells (5×10^3 cells/well) or SB28-GFP cells (1×10^3 cells/well) were seeded in 96-well plates in 100 μL media. After 24 hours in culture, cells were incubated with fresh medium plus the following reagents: DMSO vehicle (Con-Veh), BMT (B, 10 μM), TMZ (100 μM), or TMZ+B for 48 h. BrdU was added in the last 4 h period of the whole 48 h incubation. The incorporation of BrdU into newly synthesized DNA of proliferating cells was detected by using a peroxidase-conjugated antibody which reacts with the thymidine analogue BrdU. Bound anti-BrdU-peroxidase conjugated antibody was measured by a substrate reaction, and then quantified colorimetrically by an ELISA plate reader (Spectra MAX 190, Molecular Devices, Sunnyvale, CA) at dual wavelength of 450/550 nm."}},
  "data": [
    {"compound": "CCCCNc1cc(CNCC(F)(F)F)cc(S(N)(=O)=O)c1Oc1ccccc1", "note": "[STS66, 3-(Butylamino)-2-phenoxy-5-[(2,2,2-trifluoroethylamino)methyl]benzenesulfonamide]", "values": [
      {"measurement": "pNKCC1 and tNKCC1 expression", "setting": "[1]", "value": "did not show significant decrease"},
      {"measurement": "inhibition of cell proliferation (BrdU incorporation)", "setting": "GL26 and SB28-GFP cells", "value": "more inhibition of GL26 and SB28-GFP cell proliferation than BMT"}
    ]}
  ]
}
